Test results: PMC2790557 (Biochemistry, 2009)

Biological target: CK2 (casein kinase II)

OC[C@H]1O[C@@H](n2cnc3cc(Cl)c(Cl)cc32)[C@H](O)[C@@H]1O [DRB, 5,6-Dichloro-1-(β-D-ribofuranosyl)benzimidazole]
IC50: ~10 µM
